One block for each compound: values may come before it.
Legend:
Assay type in all cases: physicochemical
[1] = Cleavage of 1 (CPT600) after photo-reaction in solution (UV irradiation, HCl treatment, RP-HPLC UV/MS); settings: BPC + All MS
Procedure: In a 100 μL PCR tube, 20 μL 73 μM 1 (CPT600) was irradiated at 4° C. for 5 min in the caproBox (310 nm version, caprotec bioanalytics GmbH, Berlin, Germany). 1.7 μL 37% HCl was added, mixed and the solution was incubated on a thermoshaker at 37° C. for 2 h. Then 100 μL Milli-Q water and 9 μL 2N NaOH were added and mixed. The resulting solution as analyzed by RP-HPLC coupled to a UV detector and a mass spectrometer (FIG. 6 and Table 2a) as described in example 1. As a control, the same sample but with only very brief incubation under acidic conditions (r.t. for about 10 s instead of 37° C. for 2 h) was prepared (FIG. 7 and Table 2b).

[2] = Cleavage of 1 (CPT600) after photo-reaction on CPG-pN3, with CPG-Ac and in-solution controls; set-up: Area: unit not given here
Procedure: 20 μL 10 mg/mL 1 (CPT600)-loaded CPG-pN3 from example 1 were transferred into a 100 μL PCR tube, centrifuged, the supernatant was discarded and 20 μL in water was added. The suspension was irradiated at 4° C. for 5 min (with re-suspending every 30 s) in the caproBox (310 nm version, caprotec bioanalytics GmbH, Berlin, Germany). 1.7 μL 37% HCl was added, mixed and the solution was incubated on a thermoshaker at 37° C. for 2 h. Then 100 μL Milli-Q water and 9 μL 2N NaOH were added and mixed. After centrifugation, the resulting supernatant was analyzed by RP-HPLC coupled to a UV detector and a mass spectrometer as described in example 1. As a control, the same sample but with only very brief incubation under acidic conditions (r.t. for about 10 s instead of 37° C. for 2 h) was prepared.
Further controls included using 1 (CPT600)-treated CPG-Ac from example 1 (short and long acid treatment) instead of 1 (CPT600)-loaded CPG-pN3 and 1 (CPT600) in solution (short and long acid treatment) as described in example 2. All six experiments were performed side-by-side.

[3] = Cleavage reaction of photo-reacted compound 11 (12) with HCl / 2-nitrobenzhydrazide, LC-MS; settings: for Area/a.u. (LC-MS EIC peak): 45 μM 12, 1 h room temperature
Procedure: A solution of 75 μL 56 μM 11 (CPT727, Capture Compound bearing tetrazine as sorting function and a chemically cleavable photo-reactivity function) in 50% acetonitrile was irradiated with UV light (λmax=310 nm) for 5 min at 4° C. in the caproBox to activate the reactivity function yielding 12 (Scheme 12).
Cleavage of the photo-reacted reactivity function (15) from 12 yielding also 17 as a product (Scheme 13) was investigated under several conditions summarized in Table 5. The reaction was performed in a final volume of 10 μl for 1 h at room temperature. Each reaction mixture contained 8 μl of the above described solution of 12 (45 μM final concentration), 1 μl 100 mM or 10 mM 2-nitrobenzhydrazide in DMSO or just DMSO and 1 μl 100 mM or 10 mM HCl in water or just water. Analysis was performed by LC-MS. Integration of peak areas corresponding to the respective species is included into Table 5.

[4] = 1 (CPT600) after UV irradiation and HCl 37 °C 2 h
[5] = In solution, 0 h HCl, BPC + All MS
[6] = In solution, 0 h HCl, UV 254 nm
[7] = CPG-Ac instead of CPG-pN3, 2 h acidic treatment
[8] = In solution, 2 h HCl, UV 254 nm
[9] = In solution, 2 h HCl, BPC + All MS
[10] = On CPG-Ac, 2 h HCl, BPC + All MS
[11] = On CPG-pN3, 2 h HCl, BPC + All MS
[12] = c(HCl) 0 mM, c(2-nitrobenzhydrazide) 0 mM
[13] = c(HCl) 0 mM, c(2-nitrobenzhydrazide) 1 mM
[14] = c(HCl) 0 mM, c(2-nitrobenzhydrazide) 10 mM
[15] = c(HCl) 1 mM, c(2-nitrobenzhydrazide) 0 mM
[16] = c(HCl) 1 mM, c(2-nitrobenzhydrazide) 1 mM
[17] = c(HCl) 1 mM, c(2-nitrobenzhydrazide) 10 mM
[18] = c(HCl) 10 mM, c(2-nitrobenzhydrazide) 0 mM
[19] = c(HCl) 10 mM, c(2-nitrobenzhydrazide) 1 mM
[20] = c(HCl) 10 mM, c(2-nitrobenzhydrazide) 10 mM

Area (MS-peak integration) [1, 4]: 167125312
Area Frac. % [1, 4]: 2.52%
Compound: C#CCNC(=O)C1(C(=O)NCCCC[C@@H](C(=O)NCCc2ccc(NC(=O)CCCCCCC(=O)O)cc2)[N+](C)(C)C)COC(c2ccc(C3(C(F)(F)F)N=N3)cc2)OC1 (stereo partly shown) [Compound 2]

Area [2, 5]: 2114062848
Area Frac % [2, 5]: 100.00%
Area [2, 6]: 31.679
Area Frac % [2, 6]: 100.00%
Area (MS-peak integration) [1, 4]: 432395200
Area Frac. % [1, 4]: 6.52%
Area (MS-peak integration) ([1]; 1 (CPT600) after UV irradiation, very brief acid (r.t. about 10 s, control)): 3091667200
Compound: C#CCNC(=O)C1(C(=O)NCCCC[C@@H](C(=O)NCCc2ccc(NC(=O)CCCCCCC(=O)NO)cc2)[N+](C)(C)C)COC(c2ccc(C(O)C(F)(F)F)cc2)OC1 (stereo partly shown) [Compound 3]

Area (MS-peak integration) [1, 4]: 386267200
Area Frac. % [1, 4]: 5.82%
Compound: C#CCNC(=O)C1(C(=O)NCCCC[C@@H](C(=O)NCCc2ccc(NC(=O)CCCCCCC(=O)O)cc2)[N+](C)(C)C)COC(c2ccc(C(O)C(F)(F)F)cc2)OC1 (stereo partly shown) [Compound 4]

amount of cleavage fragment relative to the respective CPG-pN3 sample (UV peak areas) [2, 7]: 8.0%
amount of cleavage fragment relative to the respective sample in solution (UV peak areas) [2, 7]: 3.9%
Area [2, 8]: 63.355
Area Frac % [2, 8]: 55.35%
Area ([2]; On CPG-Ac, 2 h HCl, UV 254 nm): 2.4903
Area Frac % ([2]; On CPG-Ac, 2 h HCl, UV 254 nm): 30.94%
Area ([2]; On CPG-pN3, 2 h HCl, UV 254 nm): 30.9728
Area Frac % ([2]; On CPG-pN3, 2 h HCl, UV 254 nm): 85.18%
amount of cleavage fragment relative to the respective sample in solution (UV peak areas) ([2]; UV-irradiated 1 (CPT600)-loaded CPG-pN3, 2 h acidic treatment): 48.9%
Compound: O=Cc1ccc(C(O)C(F)(F)F)cc1 (stereo not shown) [Compound 6]

amount in supernatant of CPG bead samples compared to solution sample (base peak MS peak areas) ([2]; 2 h acidic treatment): 16.1%
Area [2, 9]: 1793367808
Area Frac % [2, 9]: 35.46%
Area [2, 8]: 15.084
Area Frac % [2, 8]: 13.18%
Area [2, 10]: 114680936
Area Frac % [2, 10]: 41.23%
Area [2, 11]: 288188416
Area Frac % [2, 11]: 65.33%
Area (MS-peak integration) [1, 4]: 1798498944
Area Frac. % [1, 4]: 27.10%
Compound: C#CCNC(=O)C(CO)(CO)C(=O)NCCCC[C@@H](C(=O)NCCc1ccc(NC(=O)CCCCCCC(=O)O)cc1)[N+](C)(C)C [Compound 7]

fraction cleaved ([3]; 1 mM or higher concentration of HCl alone, room temperature, within 1 h): more than 60%
detection of starting material ([3]; 10 mM HCl and 1 mM or 10 mM 2-nitrobenzhydrazide): no longer detected
Area/a.u. (LC-MS EIC peak) [3, 12]: 865231808 a.u.
Area/a.u. (LC-MS EIC peak) [3, 13]: 601044672 a.u.
Area/a.u. (LC-MS EIC peak) [3, 14]: 616590720 a.u.
Area/a.u. (LC-MS EIC peak) [3, 15]: 315121856 a.u.
Area/a.u. (LC-MS EIC peak) [3, 16]: 130056936 a.u.
Area/a.u. (LC-MS EIC peak) [3, 17]: 5361744 a.u.
Area/a.u. (LC-MS EIC peak) [3, 18]: 17781000 a.u.
Compound: Cc1nnc(-c2ccc(CN(CC(=O)NCCCCNc3ncnc4c3ncn4C3OC(CSCC[C@H](N)C(=O)O)C(O)C3O)C(=O)CC/C=N/N(C)C(=O)c3ccc(C(O)C(F)(F)F)cc3)cc2)nn1 (stereo partly shown) [Compound 12]

Area/a.u. (LC-MS EIC peak) [3, 12]: 15540301 a.u.
Area/a.u. (LC-MS EIC peak) [3, 13]: 19033696 a.u.
Area/a.u. (LC-MS EIC peak) [3, 14]: 20155070 a.u.
Area/a.u. (LC-MS EIC peak) [3, 15]: 75526584 a.u.
Area/a.u. (LC-MS EIC peak) [3, 16]: 93782304 a.u.
Area/a.u. (LC-MS EIC peak) [3, 17]: 120971320 a.u.
Area/a.u. (LC-MS EIC peak) [3, 18]: 101335752 a.u.
Area/a.u. (LC-MS EIC peak) [3, 19]: 119463976 a.u.
Area/a.u. (LC-MS EIC peak) [3, 20]: 130339744 a.u.
Compound: CN(N)C(=O)c1ccc(C(O)C(F)(F)F)cc1 (stereo not shown) [Compound 15]

Area/a.u. (LC-MS EIC peak) [3, 13]: 50293356 a.u.
Area/a.u. (LC-MS EIC peak) [3, 14]: 116403456 a.u.
Area/a.u. (LC-MS EIC peak) [3, 16]: 623734464 a.u.
Area/a.u. (LC-MS EIC peak) [3, 17]: 1157550976 a.u.
Area/a.u. (LC-MS EIC peak) [3, 19]: 694334592 a.u.
Area/a.u. (LC-MS EIC peak) [3, 20]: 1188207104 a.u.
Compound: Cc1nnc(-c2ccc(CN(CC(=O)NCCCCNc3ncnc4c3ncn4C3OC(CSCC[C@H](N)C(=O)O)C(O)C3O)C(=O)CC/C=N/NC(=O)c3ccccc3[N+](=O)[O-])cc2)nn1 (stereo partly shown) [Compound 17]

— patent US20160349268A1, “STEPWISE ASSEMBLED CAPTURE COMPOUNDS COMPRISING A CLEAVABLE FUNCTION AND METHOD FOR ISOLATING AND/OR CHARACTERIZING BIOMOLECULES OR BIOMOLECULE FRAGMENTS, IN PARTICULAR PROTEINS OR PROTEIN FRAGMENTS, OF COMPLEX MIXTURES” (CAPROTEC BIOANALYTICS GMBH, priority 2014, published 2016)
